In the NIST ThermoML archive (doi:10.1016/j.jct.2011.02.018):

Assay: xn = mol fraction of the nth substance listed
Settings: 101 kPa, Liquid; for viscosity: Concentric cylinders viscometry; for mass density: Vibrating tube method

COC(C)(C)C [2-methoxy-2-methylpropane] + CC(C)O
Settings	mass density, 293.15 K [kg/m3]	mass density, 298.15 K [kg/m3]	mass density, 303.15 K [kg/m3]	mass density, 308.15 K [kg/m3]	viscosity, 293.15 K [mPa·s]	viscosity, 298.15 K [mPa·s]	viscosity, 303.15 K [mPa·s]	viscosity, 308.15 K [mPa·s]
x1 = 0.0093	784.82	780.63	776.34	771.97	2.325	1.988	1.716	1.488
x1 = 0.0206	784.14	779.92	775.62	771.24	2.232	1.919	1.661	1.444
x1 = 0.0305	783.55	779.33	775.01	770.65	2.145	1.853	1.606	1.399
x1 = 0.0398	783	778.77	774.43	770.06	2.066	1.773	1.547	1.35
x1 = 0.0499	782.41	778.17	773.82	769.37	1.982	1.719	1.496	1.307
x1 = 0.0601	781.75	777.51	773.15	768.84	1.901	1.653	1.443	1.264
x1 = 0.0702	781.19	776.93	772.55	768.22	1.832	1.595	1.395	1.226
x1 = 0.0799	780.66	776.38	772	767.62	1.761	1.538	1.348	1.186
x1 = 0.0914	780.12	775.85	771.45	766.96	1.693	1.479	1.299	1.145
x1 = 0.1009	779.62	775.32	770.89	766.39	1.634	1.432	1.26	1.112
x1 = 0.1493	777.01	772.62	768.12	763.55	1.391	1.235	1.093	0.9806
x1 = 0.2014	774.27	769.81	765.24	760.59	1.193	1.057	0.9479	0.8473
x1 = 0.244	771.96	767.45	762.82	758.12	1.05	0.9465	0.8652	0.7741
x1 = 0.2863	769.95	765.38	760.69	755.94	0.9352	0.8443	0.7635	0.6933
x1 = 0.3081	768.87	764.26	759.55	754.77	0.885	0.8004	0.7251	0.6588
x1 = 0.351	766.72	762.06	757.3	752.47	0.8018	0.729	0.6639	0.6054
x1 = 0.3995	764.43	759.73	754.91	750.02	0.7225	0.6613	0.6057	0.5521
x1 = 0.4516	762.08	757.31	752.43	747.48	0.6544	0.6008	0.5514	0.501
x1 = 0.4999	759.97	755.15	750.22	745.22	0.6	0.5578	0.5139	0.4673
x1 = 0.5497	757.86	752.98	748.01	742.97	0.5545	0.5128	0.4738	0.4345
x1 = 0.5994	755.8	750.88	745.87	740.79	0.5151	0.477	0.4395	0.4032
x1 = 0.6493	753.77	748.81	743.75	738.63	0.4839	0.4481	0.4129	0.3822
x1 = 0.6993	751.8	746.81	741.69	736.5	0.4525	0.4253	0.3938	0.3678
x1 = 0.7499	749.84	744.78	739.62	734.4	0.4259	0.398	0.3695	0.3487
x1 = 0.8015	747.89	742.8	737.6	732.34	0.4066	0.3819	0.352	0.3323
x1 = 0.8509	746.05	740.92	735.7	730.41	0.3844	0.3613	0.3397	0.3136
x1 = 0.8997	744.25	739.1	733.84	728.52	0.3678	0.3459	0.3193	0.303
x1 = 0.9089	743.91	738.76	733.49	728.17	0.3718	0.3448	0.3254	0.298
x1 = 0.9191	743.54	738.35	733.11	727.78	0.3617	0.3398	0.3152	0.2968
x1 = 0.9294	743.17	737.99	732.74	727.41	0.3609	0.3374	0.3121	0.2986
x1 = 0.9401	742.78	737.6	732.34	727.01	0.3548	0.3317	0.307	0.293
x1 = 0.9512	742.37	737.18	731.91	726.58	0.355	0.3361	0.3045	0.2959
x1 = 0.9587	742.11	736.92	731.64	726.3	0.3558	0.3309	0.3021	0.2906
x1 = 0.97	741.7	736.51	731.24	725.88	0.3466	0.3247	0.302	0.2819
x1 = 0.9777	741.42	736.23	730.94	725.59	0.3447	0.3228	0.2983	0.2804
x1 = 0.9897	740.99	735.8	730.5	725.16	0.342	0.3204	0.2943	0.283
